pEC50, pIC50: −log10 of the molar value. One block for each compound: values may come before it.
Key:
[1] = target: T1, G-protein coupled bile acid receptor 1 (Homo sapiens, UniProt Q8TDU6); assay: Agonist activity at TGR5 in human HEK293 cells assessed as increase in cAMP production; assay type: cell-based
T1 sequence (Q8TDU6 whole entry): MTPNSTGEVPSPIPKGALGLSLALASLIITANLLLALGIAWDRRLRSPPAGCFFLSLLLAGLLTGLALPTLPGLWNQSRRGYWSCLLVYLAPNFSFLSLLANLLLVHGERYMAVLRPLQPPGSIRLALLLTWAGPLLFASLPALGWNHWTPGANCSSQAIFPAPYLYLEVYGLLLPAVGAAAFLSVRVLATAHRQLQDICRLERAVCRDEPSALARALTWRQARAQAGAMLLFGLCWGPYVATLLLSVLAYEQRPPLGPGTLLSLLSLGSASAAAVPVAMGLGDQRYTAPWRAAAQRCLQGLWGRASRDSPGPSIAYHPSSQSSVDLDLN

[2] = target: T1, G-protein coupled bile acid receptor 1; assay: Agonist activity at human TGR5 transfected in CHO cells assessed as increase in cAMP production; assay type: cell-based
[3] = Aqueous solubility of compound; assay type: physicochemical; details: buffer
[4] = Clearance in mouse liver microsomes; assay type: ADME, Microsome; details: microsomes
[5] = target: T2, G-protein coupled bile acid receptor 1 (Mus musculus, UniProt Q80SS6); assay: Agonist activity at mouse TGR5
T2 sequence (Q80SS6 whole entry): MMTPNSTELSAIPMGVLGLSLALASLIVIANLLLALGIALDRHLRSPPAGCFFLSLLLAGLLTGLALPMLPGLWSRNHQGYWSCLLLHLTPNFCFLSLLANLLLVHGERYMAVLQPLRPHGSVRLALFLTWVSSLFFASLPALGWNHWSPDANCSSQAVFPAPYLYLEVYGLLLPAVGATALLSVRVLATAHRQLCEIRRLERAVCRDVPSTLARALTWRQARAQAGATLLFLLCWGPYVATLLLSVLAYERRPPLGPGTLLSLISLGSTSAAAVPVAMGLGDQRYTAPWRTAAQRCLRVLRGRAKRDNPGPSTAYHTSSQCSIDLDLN

[6] = Clearance in human liver microsomes; assay type: ADME, Microsome; details: microsomes
Bile acid receptor [7] = target: T3, Bile acid receptor (Homo sapiens, UniProt Q96RI1); assay: Antagonist activity at FXR in human HepG2 cells in presence of CDCA by luciferase reporter assay; assay type: cell-based
T3 sequence (Q96RI1 whole entry): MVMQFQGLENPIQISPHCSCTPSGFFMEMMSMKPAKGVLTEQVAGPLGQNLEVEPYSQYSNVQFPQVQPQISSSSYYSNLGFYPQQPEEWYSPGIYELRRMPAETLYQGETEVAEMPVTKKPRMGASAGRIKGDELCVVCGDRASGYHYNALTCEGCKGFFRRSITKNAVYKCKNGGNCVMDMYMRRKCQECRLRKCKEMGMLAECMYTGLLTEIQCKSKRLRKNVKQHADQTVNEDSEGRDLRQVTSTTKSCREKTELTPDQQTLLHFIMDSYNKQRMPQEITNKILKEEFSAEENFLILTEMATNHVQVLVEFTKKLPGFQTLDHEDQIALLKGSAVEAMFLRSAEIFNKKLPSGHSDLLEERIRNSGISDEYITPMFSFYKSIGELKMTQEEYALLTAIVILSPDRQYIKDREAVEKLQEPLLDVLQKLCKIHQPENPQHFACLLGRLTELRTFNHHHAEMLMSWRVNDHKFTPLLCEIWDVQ

[8] = target: T4, G-protein coupled bile acid receptor 1 (Mus musculus) (UniProt Q80SS6); assay: In vivo agonist activity at TGR5 in mouse assessed as reduction in blood glucose level at 30 mg/kg, po relative to control; assay type: functional, organism-based; set-up: scale not given: the % may be the effect or the level left
T4 sequence (whole entry): T2 sequence (Q80SS6 whole entry)

[9] = target: T4, G-protein coupled bile acid receptor 1 (Mus musculus); assay: In vivo agonist activity at TGR5 in mouse assessed as increase in insulin level at 30 mg/kg, po relative to control
[10] = target: T4, G-protein coupled bile acid receptor 1 (Mus musculus); assay: In vivo agonist activity at TGR5 in mouse assessed as increase in GLP-1 secretion level at 30 mg/kg, po relative to control
[11] = target: T5, G-protein coupled bile acid receptor 1 (Homo sapiens) (UniProt Q8TDU6); assay: Agonist activity at human TGR5 transfected in human NCI-H716 cells assessed as increase in GLP-1 secretion at 5 uM relative to control; assay type: cell-based; details: filed as agonist
T5 sequence (whole entry): T1 sequence (Q8TDU6 whole entry)

[12] = target: T5, G-protein coupled bile acid receptor 1 (Homo sapiens); assay: Agonist activity at human TGR5 transfected in human NCI-H716 cells assessed as increase in cAMP production at 10 uM relative to control; assay type: cell-based; details: filed as agonist
[13] = target: T1, G-protein coupled bile acid receptor 1; assay: Agonist activity at human TGR5 expressed in human HEK293 cells measured after 5.5 hrs by steady-glo luciferase assay; assay type: cell-based
[14] = target: T5, G-protein coupled bile acid receptor 1 (Homo sapiens); assay: Agonist activity at human TGR5 expressed in human HEK293 cells at 20 uM measured after 5.5 hrs by steady-glo luciferase assay relative to control; assay type: cell-based; details: filed as agonist
[15] = target: T6, G-protein coupled bile acid receptor 1 (Rattus norvegicus) (UniProt Q80T02); assay: Agonist activity at TGR5 in rat Primary intestinal cell assessed as stimulation of GLP-1 secretion incubated for 2 hrs by ELISA analysis relative to control; assay type: cell-based; details: filed as agonist
T6 sequence (whole entry): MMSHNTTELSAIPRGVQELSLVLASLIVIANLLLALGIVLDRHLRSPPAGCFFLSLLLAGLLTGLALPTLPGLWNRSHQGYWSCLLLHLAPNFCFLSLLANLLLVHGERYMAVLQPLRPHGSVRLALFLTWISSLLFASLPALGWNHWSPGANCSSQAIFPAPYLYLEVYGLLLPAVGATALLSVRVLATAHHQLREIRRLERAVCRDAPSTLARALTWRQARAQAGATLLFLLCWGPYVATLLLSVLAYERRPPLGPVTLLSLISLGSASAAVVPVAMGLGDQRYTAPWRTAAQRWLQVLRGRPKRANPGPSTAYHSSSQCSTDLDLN

[16] = target: T7, Bile acid receptor (Homo sapiens) (UniProt Q96RI1); assay: Agonist activity at FXR (unknown origin) by alphascreen assay; details: filed as agonist
T7 sequence (whole entry): T3 sequence (Q96RI1 whole entry)

Bile acid receptor [17] = target: T3, Bile acid receptor; assay: Agonist activity at human GST-tagged FXR LBD (193 to 472 residues) by FRET assay
Bile acid receptor [18] = target: T3, Bile acid receptor; assay: Antagonist activity at FXR (unknown origin) by HTFR assay
[19] = target: T4, G-protein coupled bile acid receptor 1 (Mus musculus); assay: In vivo agonist activity at TGR5 in C57/Bl6 mouse assessed as increase in GLP-1 secretion at 30 mg/kg, po relative to control; assay type: functional, organism-based
[20] = target: T5, G-protein coupled bile acid receptor 1 (Homo sapiens); assay: Agonist activity at human TGR5 transfected in CHO cells assessed as increase in cAMP production at 100 nM relative to control; assay type: cell-based; details: filed as agonist
Bile acid receptor [21] = target: T3, Bile acid receptor; assay: Agonist activity at FXR (unknown origin)
[22] = target: T1, G-protein coupled bile acid receptor 1; assay: Agonist activity at human TGR5; details: read-out: pEC50 (converted)

- pEC50 [1]: 9.37
Compound: Cc1noc2cc(Cl)c(Oc3ccncc3C(=O)N3CCN(C4CC4)c4ccccc43)cc12

- pEC50 [2]: 7.54
Compound: Cc1ccccc1[C@H](C/C(=N/O)C1CCC(=O)N(C)C1)c1ccc(S(C)(=O)=O)cc1 (stereo not given in full)

- solubility [3]: < 1 µg/mL
- CLH [4]: 2134 mL/min/g
- pEC50 [5]: 5.59
- CLH [6]: 1418 mL/min/g
Compound: O=C(c1cccnc1Oc1cc(Cl)ccc1Cl)N1CCCc2ccccc21

- pEC50 [1]: > 5.00
Compound: FC(F)(F)c1ccc(CNCc2cc3ccsc3nc2-c2ccsc2)cc1

- pIC50 (Bile acid receptor [7]): 4.40
Compound: C=C1[C@@H](O)CC[C@]2(C)C3CC[C@@]4(C)C(=C3CC[C@@H]12)CC[C@@H]4[C@H](C)CC[C@H](CC)C(C)C (stereo not given in full)

- Activity [8]: 52%
- pEC50 [1]: > 5.00
- Activity [9]: 130%
- Activity [10]: 70%
Compound: O=c1c2ccccc2nc(-c2ccc(F)cc2)n1NCc1ccc(Br)cc1

- Activity [11]: 157%
- Activity [12]: 100%
Compound: CNc1cccc([C@H]2O[C@H](CC(=O)Nc3ccccc3F)C(=O)N(CC(C)C)c3ccccc32)c1

- pEC50 [13]: 8.85
- Activity [14]: 96%
Compound: Fc1cccc(F)c1-c1ccncc1CN1C(c2ccco2)=NO[C@@H]1c1cc(C(F)(F)F)cc(C(F)(F)F)c1Cl

- pEC50 [1]: 6.64
Compound: Fc1ccc(-n2c(COc3cccc4cnccc34)nc3ccccc32)c(Cl)c1

- pEC50 [1]: 5.13
Compound: N#Cc1cc(F)ccc1N(C(=O)COc1cccc2cnccc12)c1ccc(F)cc1Cl

- Activity [15]: 360%
Compound: O=C1COc2nccc(-c3ccccc3F)c2CN1Cc1cc(C(F)(F)F)cc(C(F)(F)F)c1

- pEC50 [1]: > 5.00
Compound: O=c1c2nccnc2nc(-c2ccc(F)cc2)n1CCc1ccc(Cl)cc1

- pEC50 [13]: 7.82
- Activity [14]: 102%
Compound: Fc1ccccc1-c1ccncc1CN1C(c2ccco2)=NOC1c1cc(C(F)(F)F)cc(C(F)(F)F)c1 (stereo not given)

Compound: CC[C@H]1[C@@H](O)C2C3CC[C@H](C(C)CCOS(=O)(=O)O)[C@@]3(C)CCC2[C@@]2(C)CC[C@@H](O)C[C@@H]12 (stereo not given in full)
- Activity [16]: 30 nM

- pEC50 [2]: 8.05
Compound: COc1cc(F)ccc1-c1ccncc1N(C)C(=O)c1cc(C(F)(F)F)cc(S(=O)(=O)N2CC3(COC3)C2)c1

- pEC50 [13]: 8.25
- Activity [14]: 90%
Compound: Fc1ccccc1-c1ccncc1CN1C(c2ccco2)=NOC1c1cc(C(F)(F)F)cc(C(F)(F)F)c1Cl (stereo not given)

- pEC50 [13]: 7.10
- Activity [14]: 93%
Compound: Fc1ccccc1-c1ccncc1CN1C(c2ccccc2)=NOC1c1cc(C(F)(F)F)cc(C(F)(F)F)c1 (stereo not given)

- pEC50 (Bile acid receptor [17]): 7.19
Compound: O=C(O)c1ccc2nc(N3CCC(OCc4c([C@H]5CCCC[C@@H]5C(F)(F)F)noc4C4CC4)CC3)sc2c1 (stereo in doubt; form 1)

- pIC50 (Bile acid receptor [18]): 5.38
Compound: O=C(O)c1ccccc1-c1ccc(Cn2ccc(OCc3c(-c4c(Cl)cccc4Cl)noc3-c3cccs3)n2)cc1

- Activity [19]: 320%
- Activity [20]: 129%
Compound: COc1ccc(C(C)(C)c2cnc(SCCNCc3cccnc3)n2-c2ccc(F)cc2)cc1OC

- pIC50 (Bile acid receptor [21]): 9.40
Compound: O=C(Nc1cc(Cl)ccc1-c1nc2cc(F)c(F)cc2n1CC1CCCCC1)c1ccc(-c2nnn[nH]2)cc1F

- pEC50 (Bile acid receptor [18]): 5.22
Compound: CC(C)c1onc(-c2c(Cl)cccc2Cl)c1COc1ccn(Cc2ccc(-c3ccccc3C(=O)O)cc2)n1

- EC50 [22]: 1000 nM
Compound: COc1ccc(S(=O)(=O)N2CCCN(S(=O)(=O)c3ccc(OC)c(OC)c3)CC2)cc1OC [SB-756050]
